Drawing on BindingDB's records for patent US11873292 (Shanghai Institute of Materia Medica, 2024), this text covers IC50 for one compound.

Usually IC50 stands for the concentration at which inhibition is half-maximal. Higher therefore signals weaker potency.

The structures appear in SMILES notation.

Assay [1] deals with Lysine-specific histone demethylase 1A (Homo sapiens, UniProt O60341). The assay can be described thus: LSD1 in vitro activity assay.
Assay [2] addresses T1, Amine oxidase [flavin-containing] A (Homo sapiens, UniProt P21397).
T1 sequence (P21397 whole entry): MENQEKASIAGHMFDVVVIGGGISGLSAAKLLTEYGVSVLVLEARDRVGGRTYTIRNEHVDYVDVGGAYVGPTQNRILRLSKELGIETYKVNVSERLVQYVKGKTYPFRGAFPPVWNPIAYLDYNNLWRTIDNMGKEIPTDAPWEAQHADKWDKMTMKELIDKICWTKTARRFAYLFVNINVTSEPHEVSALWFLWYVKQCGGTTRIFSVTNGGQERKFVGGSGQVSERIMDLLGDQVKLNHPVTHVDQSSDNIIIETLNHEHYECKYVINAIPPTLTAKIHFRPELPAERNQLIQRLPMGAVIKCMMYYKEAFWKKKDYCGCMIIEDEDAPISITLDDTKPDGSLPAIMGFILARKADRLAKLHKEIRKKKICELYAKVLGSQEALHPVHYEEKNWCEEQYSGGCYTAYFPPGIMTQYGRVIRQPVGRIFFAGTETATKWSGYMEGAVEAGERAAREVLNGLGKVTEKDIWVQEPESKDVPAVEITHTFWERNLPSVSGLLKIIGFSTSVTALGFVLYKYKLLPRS
The assay can be described thus: MAOA and MAOB In Vitro Activity Assay.

Assay [3] has as its target T2, Amine oxidase [flavin-containing] B (Homo sapiens, UniProt P27338).
T2 sequence (P27338 whole entry): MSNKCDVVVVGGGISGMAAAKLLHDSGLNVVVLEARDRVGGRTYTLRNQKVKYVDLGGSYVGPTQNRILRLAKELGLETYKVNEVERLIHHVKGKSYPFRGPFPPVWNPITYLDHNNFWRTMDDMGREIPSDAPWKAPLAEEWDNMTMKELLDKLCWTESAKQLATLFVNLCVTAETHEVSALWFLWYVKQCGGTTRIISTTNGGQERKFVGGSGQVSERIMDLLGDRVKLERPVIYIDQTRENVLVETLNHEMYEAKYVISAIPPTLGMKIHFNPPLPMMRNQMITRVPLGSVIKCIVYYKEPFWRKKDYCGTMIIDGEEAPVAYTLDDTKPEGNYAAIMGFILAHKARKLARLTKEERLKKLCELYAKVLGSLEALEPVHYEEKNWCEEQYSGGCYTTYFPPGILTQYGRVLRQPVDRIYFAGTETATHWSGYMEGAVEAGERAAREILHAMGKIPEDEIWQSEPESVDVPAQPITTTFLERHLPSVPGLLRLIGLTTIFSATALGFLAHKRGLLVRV
The assay can be described thus: MAOA and MAOB In Vitro Activity Assay.

For `O=S(=O)(c1ccccc1)N1CCc2cc(C3CC3NCc3c[nH]c4ccccc34)ccc21` (trans isomer) [US11873292, Compound A8], the IC50 was 0.0851 µM in assay [1], 81.7 µM in assay [2] and more than 100 µM in assay [3].
